Like-named read-outs stand apart in the source and are kept apart here.
Columns and labels:
[1] = β-sheet content by ATR-FT-IR; type: physicochemical; details: Fig. S7 panel A; β-sheet content by ATR-FT-IR
Summary of the method: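 Measurements on freeze-dried PNF powders used a diamond ATR element, 64 scans each, with β-sheet fraction derived as previously reported. CR reflects loss of fluorescamine-reactive monomer after 3 kDa ultrafiltration, averaged over triplicates.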

[2] = type: physicochemical; details: for ThT Cat. / ThT-Fluorescence (categorical): ThT-active if fluorescence at least twice the control
Summary of the method: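 Preformed peptide fibrils (1 mg/mL) mixed with 50 µM ThT in PBS, 15 min at RT, fluorescence ex 440/em 488 nm versus PBS blank, triplicates. Zeta potential: peptides at 1 mg/mL in PBS pH 7.4, aged 1 d at RT, diluted in 1 mM KCl, Smoluchowski from electrophoretic mobility.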

[3] = tested on: HIV-1 infection of TZM-bl cells; test: HIV-1 infectivity enhancement assay, β-galactosidase luminescence; type: cell-based; details: for Rel-EFC / Log10 Infection Rel EFC: 1.3 µM peptide; for Rel-EFC: infection relative to EF-C (QCKIKQIINMWQ = 1); for Log10 Infection Rel EFC: log10 of infection relative to EF-C; for Log Infectivity: Log10 infection relative to EF-C, TZM-bl cells, asymmetric std dev errors; for Log10 Infection Rel EF-C: HIV-1 infection of TZM-bl cells; for Log10 of Rel to EFC (Feb2021): Log10 of infection relative to EF-C, all peptides of FigS16; for Abs. Inf.: absolute infection signal, HIV-1 on TZM-bl cells, β-galactosidase luminescence; for Log10 Inf. rel. to EF-C: log10 of HIV-1 infection of TZM-bl cells relative to EF-C (EF-C = 0)
[4] = Fig. S7 panel A (plotted against β-sheet content)
[5] = Fig. S7 panel B (plotted against CR), rounded to two decimals
[6] = Log10 of infection rate relative to EF-C, Figure 3A source data
[7] = infection rate relative to EF-C, log10, data of Figure 2D
[8] = infection rate relative to EF-C, log10, source data of Figure 2C
[9] = ThT fluorescence category, 1 if Rel. ThT >2

Substance: CKIKQIINM
- b -sheet / % [1]: 46%
- Tht category (> 2 to blank = +) ([2]; Fig S10 panel D): 1 (ThT. Cat is 1, if Rel. ThT >2)
- ThT Cat. ([2]; Fig S10 panel E): 1 (ThT. Cat is 1, if Rel. ThT >2)
- ThT Cat, ([2]; ThT category, 1 if Rel. ThT >2): 1 (ThT. Cat is 1, if Rel. ThT >2)
- ThT Cat. ([2]; ThT category, 1 if Rel. ThT >2): 1 (ThT. Cat is 1, if Rel. ThT >2)
- ThT Cat. / ThT-Fluorescence (categorical) [2]: 1 (ThT. Cat is 1, if Rel. ThT >2)
- Rel-EFC [3]: 0,5
- Log10 Infection Rel EFC [3]: -0,3
- Log Infectivity [3, 4]: -0.3035
- Log Infectivity [3, 5]: -0.3
- Log10 Infection Rel EF-C [3, 6]: -0.3
- Log10 Infection Rel EF-C [3, 7]: -0.3035
- Log10 Infection Rel EF-C [3, 8]: -0.3035
- Log10 of Rel to EFC (Feb2021) [3]: -0.3
- Abs. Inf. [3]: 11280
- Log10 Inf. rel. to EF-C [3]: -0.3035

Substance: CKWKWQW
- b -sheet / % [1]: 34.2%
- Tht category (> 2 to blank = +) ([2]; Fig S10 panel D): 0 (ThT-inactive (N-Fold <2))
- ThT Cat, ([2]; ThT category, 1 if Rel. ThT >2): 0 (ThT-inactive (N-Fold <2))
- ThT Cat. [2, 9]: 0 (ThT-inactive (N-Fold <2))
- ThT Cat. / ThT-Fluorescence (categorical) [2]: 0 (ThT-inactive (N-Fold <2))
- Rel-EFC [3]: 0,25
- Log10 Infection Rel EFC [3]: -0,6
- Log Infectivity [3, 4]: -0.5951
- Log10 Infection Rel EF-C [3, 6]: -0.6
- Log10 Infection Rel EF-C [3, 7]: -0.5951
- Log10 Infection Rel EF-C [3, 8]: -0.5951
- Log10 of Rel to EFC (Feb2021) [3]: -0.6

Substance: CKYKYQY
- b -sheet / % [1]: 49.12%
- Tht category (> 2 to blank = +) ([2]; Fig S10 panel D): 1 (ThT. Cat is 1, if Rel. ThT >2)
- Tht category (> 2 to blank = +) ([2]; FigS12 panel A): 1 (ThT. Cat is 1, if Rel. ThT >2)
- ThT Cat, ([2]; FigS12 panel B): 1 (ThT. Cat is 1, if Rel. ThT >2)
- ThT Cat, ([2]; ThT category, 1 if Rel. ThT >2): 1 (ThT. Cat is 1, if Rel. ThT >2)
- ThT Cat. [2, 9]: 1 (ThT. Cat is 1, if Rel. ThT >2)
- ThT Cat. / ThT-Fluorescence (categorical) [2]: 1 (ThT. Cat is 1, if Rel. ThT >2)
- Rel-EFC [3]: 0,04
- Log10 Infection Rel EFC [3]: -1,39
- Log Infectivity [3, 4]: -1.3903
- Log10 Infection Rel EF-C [3, 6]: -1.39
- Log10 Infection Rel EF-C [3, 7]: -1.3903
- Log10 Infection Rel EF-C [3, 8]: -1.3903

Substance: CRFRFQF
- b -sheet / % [1]: 39.77%
- Tht category (> 2 to blank = +) ([2]; Fig S10 panel D): 1 (ThT. Cat is 1, if Rel. ThT >2)
- ThT Cat. ([2]; Fig S10 panel E): 1 (ThT. Cat is 1, if Rel. ThT >2)
- ThT Cat, ([2]; ThT category, 1 if Rel. ThT >2): 1 (ThT. Cat is 1, if Rel. ThT >2)
- ThT Cat. ([2]; ThT category, 1 if Rel. ThT >2): 1 (ThT. Cat is 1, if Rel. ThT >2)
- ThT Cat. / ThT-Fluorescence (categorical) [2]: 1 (ThT. Cat is 1, if Rel. ThT >2)
- Rel-EFC [3]: 0,34
- Log10 Infection Rel EFC [3]: -0,46
- Log Infectivity [3, 4]: -0.4635
- Log Infectivity [3, 5]: -0.46
- Log10 Infection Rel EF-C [3, 6]: -0.46
- Log10 Infection Rel EF-C [3, 7]: -0.4635
- Log10 Infection Rel EF-C [3, 8]: -0.4635
- Log10 of Rel to EFC (Feb2021) [3]: -0.46
- Abs. Inf. [3]: 7508
- Log10 Inf. rel. to EF-C [3]: -0.4635

Substance: CRFRVPF
- b -sheet / % [1]: 11.43%
- Tht category (> 2 to blank = +) ([2]; Fig S10 panel D): 0 (ThT-inactive (N-Fold <2))
- ThT Cat. ([2]; Fig S10 panel E): 0 (ThT-inactive (N-Fold <2))
- Tht category (> 2 to blank = +) ([2]; FigS12 panel A): 0 (ThT-inactive (N-Fold <2))
- ThT Cat, ([2]; FigS12 panel B): 0 (ThT-inactive (N-Fold <2))
- ThT Cat, ([2]; ThT category, 1 if Rel. ThT >2): 0 (ThT-inactive (N-Fold <2))
- ThT Cat. ([2]; ThT category, 1 if Rel. ThT >2): 0 (ThT-inactive (N-Fold <2))
- ThT Cat. / ThT-Fluorescence (categorical) [2]: 0 (ThT-inactive (N-Fold <2))
- Rel-EFC [3]: 0,02
- Log10 Infection Rel EFC [3]: -1,7
- Log Infectivity [3, 4]: -1.701
- Log Infectivity [3, 5]: -1.7
- Log10 Infection Rel EF-C [3, 6]: -1.7
- Log10 Infection Rel EF-C [3, 7]: -1.701
- Log10 Infection Rel EF-C [3, 8]: -1.701
- Abs. Inf. [3]: 376.7
- Log10 Inf. rel. to EF-C [3]: -1.701

Substance: EFEFQF
- b -sheet / % [1]: 44.93%
- Tht category (> 2 to blank = +) ([2]; Fig S10 panel D): 1 (ThT. Cat is 1, if Rel. ThT >2)
- Tht category (> 2 to blank = +) ([2]; FigS12 panel A): 1 (ThT. Cat is 1, if Rel. ThT >2)
- ThT Cat, ([2]; FigS12 panel B): 1 (ThT. Cat is 1, if Rel. ThT >2)
- ThT Cat, ([2]; ThT category, 1 if Rel. ThT >2): 1 (ThT. Cat is 1, if Rel. ThT >2)
- ThT Cat. [2, 9]: 1 (ThT. Cat is 1, if Rel. ThT >2)
- ThT Cat. / ThT-Fluorescence (categorical) [2]: 1 (ThT. Cat is 1, if Rel. ThT >2)
- Rel-EFC [3]: 0
- Log10 Infection Rel EFC [3]: -2,49
- Log Infectivity [3, 4]: -2.485
- Log10 Infection Rel EF-C [3, 6]: -2.49
- Log10 Infection Rel EF-C [3, 7]: -2.485
- Log10 Infection Rel EF-C [3, 8]: -2.485

— publication PMC10447463, “Data-mining unveils structure–property–activity correlation of viral infectivity enhancing self-assembling peptides” (Nature Communications, 2023)
